Test results from patent US11807625B2, “Capsid inhibitors for the prevention of HIV” (Gilead Sciences, Inc., priority 2019, dated 2023).
Where “and” joins values, the source holds several entries; their conditions need not be identical. Equal entries are not always repeated.

Test: PK of compound of Formula (Ia) after single subcutaneous dose of solution formulations in Wistar Han rats
Assay type: in vivo
Conditions: SC 50 mg/kg; for concentration at 1 h / concentration at 3 h / concentration at 8 h: male, Wistar Han, rat, plasma, sc
Procedure: Formulations containing the compound of Formula (Ia), or a pharmaceutically acceptable salt thereof, were prepared as solutions and optionally administered subcutaneously or intramuscularly to rats, rabbits, and/or dogs.
(§1) A solution of about 400 mg/mL of the compound of Formula (Ia) having 19.14 w/w % water, 40.66 w/w % PEG 300, 35.20 w/w % of a sodium salt of a compound of Formula (Ia), and 5.00% ethanol was prepared. The solution was administered subcutaneously to male Wistar Han rats at a dose level of about 50 mg/kg and dose volume of 0.125 mL/kg and the pharmacokinetic (PK) profile was determined.
as §1, with “500” for “400”, “16.64” for “19.14”, “35.36” for “40.66”, “43.00” for “35.20”, “0.1” for “0.125”
(§2) A solution of about 400 mg/mL of the compound of Formula (Ia) having 17.00 w/w % water, 36.40 w/w % PEG 300, 35.20 w/w % of a sodium salt of a compound of Formula (Ia), 5.00 w/w % ethanol, and 6.40 w/w % poloxamer 188 was prepared. The solution was administered subcutaneously to male beagle dogs at a dose level of about 12 mg/kg and male Wistar Han rats at a dose level of about 50 mg/kg. The pharmacokinetic profiles were determined, and the results for dogs are summarized in Table and Table, while the results for rats are summarized in Table and Table below.
as §2, with “500” for “400”, “14.06” for “17.00”, “30.12” for “36.40”
A solution of about 300 mg/mL of the compound of Formula (Ia) having 23.33 w/w % water, 48.99 w/w % PEG 300, 26.47 w/w % of a sodium salt of a compound of Formula (Ia), and 1.21 w/w % poloxamer 188 was prepared. The solution was administered subcutaneously to male beagle dogs at a dose level of about 6 mg/kg and male Wistar Han rats at a dose level of about 50 mg/kg. The pharmacokinetic profiles were determined, and the results for dogs are summarized in Table and Table, while the results for rats are summarized in Table and Table below.
as §2, with “18.80” for “17.00”, “40.25” for “36.40”, “34.38” for “35.20”, “1.57” for “6.40”
as §2, with “500” for “400”, “16.29” for “17.00”, “34.88” for “36.40”, “41.92” for “35.20”, “1.91” for “6.40”
A solution of about 400 mg/mL of the compound of Formula (Ia) having 20.90 w/w % water, 44.72 w/w % PEG 300, and 34.38 w/w % of a sodium salt of a compound of Formula (Ia) was prepared. […]

- Plasma concentration (0 h, individual rats, solution R, 400 mg/mL): BLQ
- Plasma concentration (0 h, individual rats, solution S, 500 mg/mL): BLQ
- Plasma concentration (0 h, individual rats, solution T, 400 mg/mL): BLQ
- Plasma concentration (0 h, individual rats, solution U, 500 mg/mL): BLQ
- Plasma concentration (0 h, individual rats, solution V, 300 mg/mL): BLQ
- Plasma concentration (1.00 h, individual rats, solution R, 400 mg/mL, 50 mg/kg): 59.3 nM and 42.4 nM
- Plasma concentration (3.00 h, individual rats, solution R, 400 mg/mL, 50 mg/kg): 164 nM and 104 nM
- Plasma concentration (3.00 h, individual rats, solution S, 500 mg/mL, 50 mg/kg): 72.7 nM and 118 nM
- Plasma concentration (8.00 h, individual rats, solution R, 400 mg/mL, 50 mg/kg): 131 nM and 84.1 nM
- Plasma concentration (8.00 h, individual rats, solution S, 500 mg/mL, 50 mg/kg): 82.0 nM and 127 nM
- Plasma concentration (24.0 h, individual rats, solution R, 400 mg/mL, 50 mg/kg): 194 nM and 125 nM
- Plasma concentration (24.0 h, individual rats, solution S, 500 mg/mL, 50 mg/kg): 138 nM and 133 nM
- Plasma concentration (48.0 h, individual rats, solution R, 400 mg/mL, 50 mg/kg): 162 nM and 107 nM
- Plasma concentration (48.0 h, individual rats, solution S, 500 mg/mL, 50 mg/kg): 158 nM and 119 nM
- Plasma concentration (72.0 h, individual rats, solution R, 400 mg/mL, 50 mg/kg): 154 nM and 123 nM
- Plasma concentration (72.0 h, individual rats, solution S, 500 mg/mL, 50 mg/kg): 166 nM and 120 nM
- Plasma concentration (96.0 h, individual rats, solution R, 400 mg/mL, 50 mg/kg): 162 nM and 112 nM
- Plasma concentration (96.0 h, individual rats, solution S, 500 mg/mL, 50 mg/kg): 149 nM and 107 nM
- Plasma concentration (168 h, individual rats, solution R, 400 mg/mL, 50 mg/kg): 166 nM and 124 nM
- Plasma concentration (168 h, individual rats, solution S, 500 mg/mL, 50 mg/kg): 121 nM and 82.3 nM
- Plasma concentration (336 h, individual rats, solution R, 400 mg/mL, 50 mg/kg): 275 nM and 256 nM
- Plasma concentration (336 h, individual rats, solution S, 500 mg/mL, 50 mg/kg): 277 nM and 140 nM and 131 nM
- Plasma concentration (504 h, individual rats, solution R, 400 mg/mL, 50 mg/kg): 319 nM and 393 nM
- Plasma concentration (504 h, individual rats, solution S, 500 mg/mL, 50 mg/kg): 211 nM and 235 nM
- Plasma concentration (672 h, individual rats, solution R, 400 mg/mL, 50 mg/kg): 286 nM and 442 nM
- Plasma concentration (672 h, individual rats, solution S, 500 mg/mL, 50 mg/kg): 254 nM and 227 nM
- Plasma concentration (840 h, individual rats, solution R, 400 mg/mL, 50 mg/kg): 313 nM and 443 nM
- Plasma concentration (840 h, individual rats, solution S, 500 mg/mL, 50 mg/kg): 221 nM and 250 nM
- Plasma concentration (1008 h, individual rats, solution R, 400 mg/mL, 50 mg/kg): 318 nM and 442 nM
- Plasma concentration (1008 h, individual rats, solution S, 500 mg/mL, 50 mg/kg): 479 nM and 207 nM and 215 nM
- Plasma concentration (1334 h, individual rats, solution R, 400 mg/mL, 50 mg/kg): 266 nM and 421 nM
- Plasma concentration (1334 h, individual rats, solution S, 500 mg/mL, 50 mg/kg): 254 nM and 248 nM
- Plasma concentration (1680 h, individual rats, solution R, 400 mg/mL, 50 mg/kg): 233 nM and 328 nM
- Plasma concentration (1680 h, individual rats, solution S, 500 mg/mL, 50 mg/kg): 216 nM and 189 nM
- Plasma concentration (2016 h, individual rats, solution R, 400 mg/mL, 50 mg/kg): 181 nM and 227 nM
- Plasma concentration (2016 h, individual rats, solution S, 500 mg/mL, 50 mg/kg): 158 nM and 133 nM
- Plasma concentration (2352 h, individual rats, solution R, 400 mg/mL, 50 mg/kg): 182 nM
- Plasma concentration (2352 h, individual rats, solution S, 500 mg/mL, 50 mg/kg): 170 nM and 119 nM
- Plasma concentration (2688 h, individual rats, solution R, 400 mg/mL, 50 mg/kg): 146 nM and 147 nM
- Plasma concentration (2688 h, individual rats, solution S, 500 mg/mL, 50 mg/kg): 148 nM and 126 nM
- Plasma concentration (3024 h, individual rats, solution R, 400 mg/mL, 50 mg/kg): 118 nM and 111 nM
- Plasma concentration (3360 h, individual rats, solution R, 400 mg/mL, 50 mg/kg): 116 nM and 84.7 nM
- Plasma concentration (3696 h, individual rats, solution R, 400 mg/mL, 50 mg/kg): 117 nM and 109 nM and 58.4 nM
- Plasma concentration (4032 h, individual rats, solution R, 400 mg/mL, 50 mg/kg): 109 nM and 136 nM and 59.5 nM
- Plasma concentration (4704 h, individual rats, solution R, 400 mg/mL, 50 mg/kg): 84.4 nM and 92.7 nM and 29.9 nM
- Plasma concentration (5376 h, individual rats, solution R, 400 mg/mL, 50 mg/kg): 62.6 nM and 90.4 nM and 20.9 nM
- Plasma concentration (6048 h, individual rats, solution R, 400 mg/mL, 50 mg/kg): 27.4 nM and 48.6 nM and 14.6 nM
- Plasma concentration (6720 h, individual rats, solution R, 400 mg/mL, 50 mg/kg): 22.7 nM and 45.8 nM and 10.4 nM
- Plasma concentration (7392 h, individual rats, solution R, 400 mg/mL, 50 mg/kg): 13.5 nM and 28.6 nM and 7.43 nM
- Plasma concentration (8064 h, individual rats, solution R, 400 mg/mL, 50 mg/kg): 8.39 nM and 24.1 nM and 4.52 nM
- concentration at 1 h (50 mg/kg, 1.00 h, individual rats, solution R, 400 mg/mL): 67.6 nM
- concentration at 1 h (50 mg/kg, 1.00 h, individual rats, solution U, 500 mg/mL): 42.6 nM
- concentration at 1 h (50 mg/kg, 1.00 h, individual rats, solution V, 300 mg/mL): 51.4 nM
- concentration at 1 h (50 mg/kg, 1.00 h, mean, n = 3 rats, solution R, 400 mg/mL): 56.4 nM
- concentration at 1 h (50 mg/kg, 1.00 h, mean, n = 3 rats, solution S, 500 mg/mL): 49.2 nM
- concentration at 1 h (50 mg/kg, 1.00 h, mean, n = 3 rats, solution V, 300 mg/mL): 51.4 nM
- concentration at 1 h (50 mg/kg, 1.00 h, mean, n = 5 rats, solution T, 400 mg/mL): 56.4 nM
- concentration at 1 h (50 mg/kg, 1.00 h, mean, n = 5 rats, solution U, 500 mg/mL): 50.5 nM
- concentration at 3 h (50 mg/kg, 3.00 h, individual rats, solution R, 400 mg/mL): 128 nM
- concentration at 3 h (50 mg/kg, 3.00 h, individual rats, solution S, 500 mg/mL): 87.6 nM
- concentration at 3 h (50 mg/kg, 3.00 h, individual rats, solution T, 400 mg/mL): 128 nM
- concentration at 3 h (50 mg/kg, 3.00 h, individual rats, solution V, 300 mg/mL): 141 nM
- concentration at 3 h (50 mg/kg, 3.00 h, mean, n = 3 rats, solution R, 400 mg/mL): 132 nM
- concentration at 3 h (50 mg/kg, 3.00 h, mean, n = 3 rats, solution S, 500 mg/mL): 92.8 nM
- concentration at 3 h (50 mg/kg, 3.00 h, mean, n = 3 rats, solution V, 300 mg/mL): 116 nM
- concentration at 3 h (50 mg/kg, 3.00 h, mean, n = 5 rats, solution T, 400 mg/mL): 135 nM
- concentration at 3 h (50 mg/kg, 3.00 h, mean, n = 5 rats, solution U, 500 mg/mL): 110 nM
- concentration at 8 h (50 mg/kg, 8.00 h, individual rats, solution R, 400 mg/mL): 120 nM
- concentration at 8 h (50 mg/kg, 8.00 h, individual rats, solution S, 500 mg/mL): 92 nM
SMILES: CC(C)(C#Cc1ccc(-c2ccc(Cl)c3c(NS(C)(=O)=O)nn(CC(F)(F)F)c23)c([C@H](Cc2cc(F)cc(F)c2)NC(=O)Cn2nc(C(F)(F)F)c3c2C(F)(F)[C@@H]2C[C@H]32)n1)S(C)(=O)=O [compound of Formula (Ia)]
